Measured values from US20200087374A1, “INTERACTION BETWEEN C-PEPTIDES AND ELASTIN RECEPTOR, A MODEL FOR UNDERSTANDING VASCULAR DISEASE” (Resiliun B.V., priority 2017, published 2020).
“Also recorded” adds a separate entry of the source. Where two headings read alike, the source gives them in different places.

What was measured:
Human monocytes = test: Monocyte chemotaxis in 48-well microchemotaxis chamber; format: cell-based; details: for effect on monocyte chemotaxis induced by C-peptide: cells exposed 30 minutes before assay, C-peptide 0.1-10 nmol/L, antibodies 1:1000; for effect on monocyte chemotaxis induced by C-peptide / effect on monocyte chemotaxis in response to VGVAPG: sugars 1 mmol/L; for induction of monocyte chemotaxis: stimulus in lower wells
Method: Human monocytes are isolated from freshly drawn blood of healthy volunteers using serial Ficoll/Percoll gradient centrifugation, as described elsewhere. Cells are cultured for 16 hours in RPMI-1640 media supplemented with 0.5% human serum to become quiescent after isolation. Purity of the cells is >95% as determined by flow cytometry analysis. Monocyte chemotaxis is assayed in a 48-well microchemotaxis chamber (Neuroprobe, Gaithersburg, Md.) in serum-free media. Wells in the upper and lower chamber are separated by a polyvinylpyrrolidone-free polycarbonate membrane (pore size 5 μm; Costar). Freshly isolated monocytes at a density of 5×10^5/mL are incubated for 2.5 hours with recombinant C-peptide (Sigma), before migrated cells on the bottom face of the filter are stained and counted under the light microscope. Maximal chemotactic activity is measured with 0.1 mmol/L N-formyl-methionyl-leucyl-phenylalanine (f-MLF; Sigma Chemical Co), and checkerboard analysis is used to distinguish chemotaxis from chemokinesis. Inhibition of chemotaxis is tested by competition with VGVAPG, a repetitive peptide sequence found in human and bovine elastin (Sigma Chemical Co), and BA-4, an antielastin-blocking antibody. Controls for BA-4 include mouse immunoglobulin G (IgG; PharMingen, San Diego, Calif.). Exposure of cells to lactose is used to specifically dissociate the 67-kD EBP. Controls for lactose included glucose, fructose, and mannose, none of which affect the 67-kD EBP. In each case, monocytes cells are exposed to the relevant concentrations of SEQ ID NO:41 (VGVAPG) (10-9 to 10-5 mol/L), antibodies (1:1000), or sugars (1 mmol/L) for 30 minutes before the chemotaxis assays are started. […] Monocytes in the upper wells of the assay chamber are exposed to varying concentrations of SEQ ID NO:41 (VGVAPG) for 30 minutes before stimulation by human recombinant C-peptide (0.1 nmol/L-10 nmol/L) in the lower wells. […] C-peptide-derived chemotactic activity is eliminated by competition with […]=SEQ ID NO:41 (VGVAPG), a repetitive peptide found in human elastin that binds to cellular elastin receptors, and decreases in the presence of BA-4, a monoclonal antibody that can block elastin peptide mediated chemotactic activity. Monocyte chemotaxis in response to both SEQ ID NO:41 (VGVAPG) and C-peptide is abolished in the presence of lactose, a galactosugar that specifically dissociates the 67-kD EBP, but it is unaffected by glucose, fructose, or mannose. […] Chemotaxis is also assayed by a double micropore membrane system in modified Boyden chambers. The lower compartment containing 180 micro-l of C-peptide or fragments thereof at various concentrations is separated from the upper compartment containing 200 micro-1 of cell suspension ([…] cells, such as endothelial cells or smooth muscle cells or pericytes or keratinocytes of fibroblasts or leukocytes per ml medium) by a 10 micro-m polycarbonate membrane (Millipore, Bedford, Mass.). The membranes are presoaked in bovine type I collagen (25 micro-g phosphate-buffered saline per ml) (Chemicon International, Temecula, Calif.) for 24 h at room temperature to facilitate the attachment of cells. The chambers are incubated for 18 h at 37° C. in 5% CO2-balanced air. The chambers are then disassembled, and the membrane pairs are stained with hematoxylin. The cell number of a number, such as five, random and nonoverlapping fields under a microscope is counted. For all experiments, medium alone in the bottom chamber may serve as the baseline control. To confirm directed cell migration, the concentration gradient between the upper and lower compartments may be abolished by adding various doses of elastin to the cell suspension. Chemotaxis is assayed as described above. Chemotaxis may also be studied in an ex vivo aortic ring assay measuring endothelial cell migration and proliferation

elastin receptor = target: T1, elastin receptor (Homo sapiens, UniProt P16278); details: cited from earlier work
T1 sequence (P16278 29-546 isoform P16278-2 limits assumed): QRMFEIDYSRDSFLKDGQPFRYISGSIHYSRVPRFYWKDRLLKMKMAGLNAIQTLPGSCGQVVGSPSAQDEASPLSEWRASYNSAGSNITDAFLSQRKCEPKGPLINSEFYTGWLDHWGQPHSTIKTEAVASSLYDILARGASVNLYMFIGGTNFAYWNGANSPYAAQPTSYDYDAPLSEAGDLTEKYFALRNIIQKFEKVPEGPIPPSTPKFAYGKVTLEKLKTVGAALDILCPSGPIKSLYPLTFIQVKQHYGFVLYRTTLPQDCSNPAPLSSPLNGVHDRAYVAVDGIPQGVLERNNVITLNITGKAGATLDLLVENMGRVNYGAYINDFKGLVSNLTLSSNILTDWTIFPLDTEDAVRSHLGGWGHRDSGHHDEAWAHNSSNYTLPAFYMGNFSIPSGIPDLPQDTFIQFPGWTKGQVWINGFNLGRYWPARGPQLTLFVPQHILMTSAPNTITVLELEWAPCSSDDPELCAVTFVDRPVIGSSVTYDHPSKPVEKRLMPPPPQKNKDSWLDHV

CD4+ immune cells = test: Boyden chamber migration of CD4+ immune cells; format: cell-based; details: for reduction/inhibition of C-peptide specific biological activity: preliminary
Method: Human monocytes are isolated from freshly drawn blood of healthy volunteers using serial Ficoll/Percoll gradient centrifugation, as described elsewhere. Cells are cultured for 16 hours in RPMI-1640 media supplemented with 0.5% human serum to become quiescent after isolation. Purity of the cells is >95% as determined by flow cytometry analysis. Monocyte chemotaxis is assayed in a 48-well microchemotaxis chamber (Neuroprobe, Gaithersburg, Md.) in serum-free media. Wells in the upper and lower chamber are separated by a polyvinylpyrrolidone-free polycarbonate membrane (pore size 5 μm; Costar). Freshly isolated monocytes at a density of 5×10^5/mL are incubated for 2.5 hours with recombinant C-peptide (Sigma), before migrated cells on the bottom face of the filter are stained and counted under the light microscope. Maximal chemotactic activity is measured with 0.1 mmol/L N-formyl-methionyl-leucyl-phenylalanine (f-MLF; Sigma Chemical Co), and checkerboard analysis is used to distinguish chemotaxis from chemokinesis. […] Controls for BA-4 include mouse immunoglobulin G (IgG; PharMingen, San Diego, Calif.). Exposure of cells to lactose is used to specifically dissociate the 67-kD EBP. Controls for lactose included glucose, fructose, and mannose, none of which affect the 67-kD EBP. In each case, monocytes cells are exposed to the relevant concentrations of SEQ ID NO:41 (VGVAPG) (10-9 to 10-5 mol/L), antibodies (1:1000), or sugars (1 mmol/L) for 30 minutes before the chemotaxis assays are started. […] Chemotaxis is also assayed by a double micropore membrane system in modified Boyden chambers. […] The membranes are presoaked in bovine type I collagen (25 micro-g phosphate-buffered saline per ml) (Chemicon International, Temecula, Calif.) for 24 h at room temperature to facilitate the attachment of cells. The chambers are incubated for 18 h at 37° C. in 5% CO2-balanced air. The chambers are then disassembled, and the membrane pairs are stained with hematoxylin. The cell number of a number, such as five, random and nonoverlapping fields under a microscope is counted. For all experiments, medium alone in the bottom chamber may serve as the baseline control. To confirm directed cell migration, the concentration gradient between the upper and lower compartments may be abolished by adding various doses of elastin to the cell suspension. Chemotaxis is assayed as described above.

[1] = tested on: 30 mM glucose-induced vascular dysfunction in rats; details: cited from earlier work; for normalization/prevention of glucose-induced vascular dysfunction: 30 mM glucose, rats; for potency relative to native C-peptide: vascular dysfunction model
[2] = tested on: arteriosclerotic lesion development; details: mice; cited from earlier work
[3] = in vivo; cited from earlier work
[4] = tested on: cell membrane-bound C-peptide; details: cited from earlier work
[5] = tested on: MAP kinase signalling pathways; details: cited from earlier work
[6] = tested on: human renal tubular cells; details: cited from earlier work
Na(+),K(+)-ATPase = details: cited from earlier work
Na^+K^+ATPase = details: rat renal tubule cells; cited from earlier work

## O=C(CO)[C@@H](O)[C@H](O)[C@H](O)CO [fructose]
Human monocytes
  effect on monocyte chemotaxis induced by C-peptide: unaffected
  effect on monocyte chemotaxis in response to VGVAPG: unaffected

## OC[C@H]1O[C@@H](O[C@H]2[C@H](O)[C@@H](O)C(O)O[C@@H]2CO)[C@H](O)[C@@H](O)[C@H]1O (stereo partly shown) [lactose]
Human monocytes
  effect on monocyte chemotaxis induced by C-peptide: abolished
  effect on monocyte chemotaxis in response to VGVAPG: abolished
Elastin receptor
  antagonism of elastin peptide (ERC-ligand) binding to elastin receptor/EBP: inhibited; also recorded: antagonized
Elastin receptor; listed as Lactose
  antagonism of elastin peptide (ERC-ligand) binding to elastin receptor/EBP: antagonise elastin peptide binding
CD4+ immune cells; in vitro
  reduction/inhibition of C-peptide specific biological activity: reduction of C-peptide specific biological activity

## D-EAEDLQVGQVELGGGPGAGSLQPLALEGSLQ (all D-amino acids) [enantio C-peptide]
[1]
  normalization/prevention of glucose-induced vascular dysfunction: biologically active
  potency relative to native C-peptide: equipotent to native C-peptide

## DLQVGQVELGGGPGAGSLQPL [SEQ ID NO:20]
[1]
  normalization/prevention of glucose-induced vascular dysfunction: significant normalization

## DLQVGQVELGGGPGAGSLQPLALEGSLQ [SEQ ID NO:10]
[1]
  normalization/prevention of glucose-induced vascular dysfunction: significant normalization

## EAEDLQVGQVELGGGPGAGSLQPL (EAEDLQVGQVELGGGPGAGSLQPLAL) [SEQ ID NO:17]
[1]
  normalization/prevention of glucose-induced vascular dysfunction: significant normalization

## EAEDLQVGQVELGGGPGAGSLQPLALEGSLQ [C-peptide]
Human monocytes
  checkerboard analysis: chemotaxis versus chemokinesis: stimulates chemotaxis without a chemokinetic effect
  induction of monocyte chemotaxis: stimulates a concentration-dependent increase in monocyte migration
[2]
  arteriosclerotic lesion development / atherogenicity: promote experimental arteriosclerotic lesion development in mice; also recorded: atherogenic in mice
[3]
  half-life: 30 min
  plasma half-life: ~30 min
CD4+ immune cells; C-peptide at 10 nM, 1% serum medium, in vitro
  increase of migration of CD4+ immune cells: 100%

## EAENPQAGAVELGGGLGGLQALALEGPPQ [pig C-peptide, pig C-peptide, midportion LGGGLG]
[1]
  normalization/prevention of glucose-induced vascular dysfunction: inactive

## EGSLQ [SEQ ID NO:6]
[4]
  displacement of cell membrane-bound C-peptide: displaces cell membrane-bound C-peptide
[5]
  MAP kinase signalling pathways: stimulates MAP kinase signalling pathways
[6]
  intracellular Ca2+: increases intracellular Ca(2+)
[6]; listed as SEQ NO:6
  intracellular Ca2+: may induce intracellular Ca2+ increases
Na(+),K(+)-ATPase
  Na(+),K(+)-ATPase: stimulates

## ELGGGPGAG [SEQ ID NO:9]
Na^+K^+ATPase
  Na+K+ATPase activity: stimulate

## ELGGGPGAGSLQPL [SEQ ID NO:176]
[1]
  normalization/prevention of glucose-induced vascular dysfunction: significant normalization

## EVEDPQVPQLELGGGPEAGDLQTLALEVARQ [Rat C-peptide, rat C-peptide comprising hexapeptide LGGGPE]
[1]
  normalization/prevention of glucose-induced vascular dysfunction: active

## GGGPGAG [SEQ ID NO:8]
[1]
  normalization/prevention of glucose-induced vascular dysfunction: normalize glucose-induced vascular dysfunction

## GQVELGGGPGAGSLQPLALEGSLQ [SEQ ID NO:13]
[1]
  normalization/prevention of glucose-induced vascular dysfunction: significant normalization

## LGGGPGAGSLQPLALEGSLQ [SEQ ID NO:14]
[1]
  normalization/prevention of glucose-induced vascular dysfunction: significant normalization

## QLSGELALPQLSGAGPGGGLEVQGVQLDEAE (retro C-Peptide)
[1]
  normalization/prevention of glucose-induced vascular dysfunction: biologically active
  potency relative to native C-peptide: equipotent to native C-peptide

## VGQVELGGGPGAGSLQPL [SEQ ID NO:175]
[1]
  normalization/prevention of glucose-induced vascular dysfunction: significant normalization

## VGVAPG [SEQ ID NO:41]
Human monocytes
  concentration of maximal chemotactic activity: 0.1 mmol/L
  effect on monocyte chemotaxis induced by C-peptide: eliminates monocyte chemotaxis induced by C-peptide
  induction of monocyte chemotaxis: induces chemotaxis in a concentration-dependent manner
Human monocytes; preincubation of monocytic cells
  effect of preincubation on chemotactic response to f-MLF: does not alter the chemotactic response to f-MLF
Human monocytes; same concentration of f-MLF
  chemotactic potency compared with f-MLF: considerably more potent than the same concentration of f-MLF
[2]
  arteriosclerotic lesion development / atherogenicity: promote experimental arteriosclerotic lesion development in mice
Elastin receptor
  binding to elastin receptor: binding has been demonstrated

## VVGSPSAQDEASPL [V14 peptide]
Elastin receptor
  antagonism of elastin peptide (ERC-ligand) binding to elastin receptor/EBP: antagonise elastin peptide binding; also recorded: inhibited; also recorded: antagonized
CD4+ immune cells; V14-peptide at 1.3 microM, C-peptide at 10 nM
  C-peptide-induced CD4-migration antagonized and diminished: > 50%
CD4+ immune cells; in vitro
  reduction/inhibition of C-peptide specific biological activity: inhibition of bioactivity of C-peptide
